Assay results as given in US9890185B2, “Urea derivatives useful as kinase inhibitors” (Respivert Limited, priority 2013, dated 2018).

Experiments:
[1] = system: PBMCs; assay: LPS-induced IL-8 release in PBMC cells (assay b); format: cell-based, human; settings: Homo sapiens, PBMC; LPS-stimulated PBMCs; read-out: IC50 Values for Inhibition of Cytokine Release, PBMCs IL-8
How it was run: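 Human PBMCs from healthy donors, isolated by density gradient, were pretreated with compound for 2 h and then stimulated with 1 ng/mL LPS (E. coli 0111:B4) for 24 h at 37° C, 5% CO2. Supernatant IL-8 and TNFα were measured by sandwich ELISA, and IC50 was taken from the dose-response curve.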

[2] = target: GSK 3α (Homo sapiens (Human), UniProt P49840); assay: GSK 3α enzyme inhibition (FRET, Z-LYTE, Method 2); format: biochemical; settings: read-out: IC50 Values for Enzyme Inhibition, GSK3α
GSK 3α, sequence (P49840 whole entry): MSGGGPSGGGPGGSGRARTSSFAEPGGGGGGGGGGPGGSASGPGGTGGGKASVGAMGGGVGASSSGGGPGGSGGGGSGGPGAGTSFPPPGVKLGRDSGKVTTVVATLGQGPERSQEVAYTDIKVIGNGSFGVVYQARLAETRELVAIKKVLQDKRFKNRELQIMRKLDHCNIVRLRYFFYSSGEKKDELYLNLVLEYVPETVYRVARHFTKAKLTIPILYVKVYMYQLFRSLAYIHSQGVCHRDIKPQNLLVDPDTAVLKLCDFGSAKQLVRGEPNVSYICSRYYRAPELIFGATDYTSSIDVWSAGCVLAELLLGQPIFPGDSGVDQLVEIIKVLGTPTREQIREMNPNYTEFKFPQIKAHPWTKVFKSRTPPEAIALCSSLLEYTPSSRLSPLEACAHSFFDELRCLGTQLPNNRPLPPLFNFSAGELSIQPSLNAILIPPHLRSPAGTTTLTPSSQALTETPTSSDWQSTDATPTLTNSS
How it was run: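 Phosphorylation of a dual-labelled synthetic peptide by human GSK3α is read as a coumarin/fluorescein ratio after protease development. Compound stocks run 4 to 0.004 μg/mL, and ATP stock is 40 μM.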

[3] = target: c-Src (Homo sapiens (Human), UniProt P12931); assay: c-Src enzyme inhibition (FRET, Z-LYTE); format: biochemical
c-Src, sequence (P12931 whole entry, looked up): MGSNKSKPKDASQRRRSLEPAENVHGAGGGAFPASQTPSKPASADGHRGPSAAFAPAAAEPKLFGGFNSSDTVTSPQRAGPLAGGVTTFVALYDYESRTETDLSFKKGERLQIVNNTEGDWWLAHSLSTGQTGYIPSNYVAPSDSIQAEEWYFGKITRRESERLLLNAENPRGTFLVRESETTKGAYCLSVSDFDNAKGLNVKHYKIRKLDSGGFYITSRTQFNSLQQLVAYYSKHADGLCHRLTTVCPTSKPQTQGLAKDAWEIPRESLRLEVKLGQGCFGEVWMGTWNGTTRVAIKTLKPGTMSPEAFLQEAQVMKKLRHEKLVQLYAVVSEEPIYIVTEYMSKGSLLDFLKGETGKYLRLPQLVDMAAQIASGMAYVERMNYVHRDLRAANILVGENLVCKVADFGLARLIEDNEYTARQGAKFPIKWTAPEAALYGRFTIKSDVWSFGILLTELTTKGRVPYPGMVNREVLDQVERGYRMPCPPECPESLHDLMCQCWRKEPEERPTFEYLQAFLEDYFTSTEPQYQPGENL
Protocol: (§1) The enzyme inhibitory activities of compounds disclosed herein are determined by FRET using synthetic peptides labelled with both donor and acceptor fluorophores (Z-LYTE, Invitrogen Ltd., Paisley, UK).
(§2) The inhibitory activities of compounds of the invention against c-Src and Syk enzymes (Invitrogen), are evaluated in a similar fashion to that described hereinabove. The relevant enzyme (3000 ng/mL or 2000 ng/mL respectively, 2.5 μL) is incubated with the test compound (either 4 μg/mL, 0.4 μg/mL, 0.04 μg/mL, or 0.004 μg/mL, 2.5 μL each) for 2 hr at RT. The FRET peptides (8 μM, 2.5 μL), and appropriate ATP solutions (2.5 μL, 800 μM for c-Src, and 60 μM ATP for Syk) are then added to the enzymes/compound mixtures and incubated for 1 hr. Development reagent (protease, 5 μL) is added for 1 hr prior to detection in a fluorescence microplate reader (Varioskan® Flash, ThermoFisher Scientific).
(§3) In all cases, the site-specific protease cleaves non-phosphorylated peptide only and eliminates the FRET signal. Phosphorylation levels of each reaction are calculated using the ratio of coumarin emission (donor) over fluorescein emission (acceptor), for which high ratios indicate high phosphorylation and low ratios indicate low phosphorylation levels. The percentage inhibition of each reaction is calculated relative to non-inhibited control and the 50% inhibitory concentration (IC50 value) is then calculated from the concentration-response curve.

[4] = target: p38 MAPKα isoform (MAPK14) (Homo sapiens (Human), UniProt Q16539); assay: p38 MAPKα enzyme inhibition (FRET, Z-LYTE, Method 2); format: biochemical
p38 MAPKα isoform (MAPK14), sequence (Q16539 whole entry, canonical isoform): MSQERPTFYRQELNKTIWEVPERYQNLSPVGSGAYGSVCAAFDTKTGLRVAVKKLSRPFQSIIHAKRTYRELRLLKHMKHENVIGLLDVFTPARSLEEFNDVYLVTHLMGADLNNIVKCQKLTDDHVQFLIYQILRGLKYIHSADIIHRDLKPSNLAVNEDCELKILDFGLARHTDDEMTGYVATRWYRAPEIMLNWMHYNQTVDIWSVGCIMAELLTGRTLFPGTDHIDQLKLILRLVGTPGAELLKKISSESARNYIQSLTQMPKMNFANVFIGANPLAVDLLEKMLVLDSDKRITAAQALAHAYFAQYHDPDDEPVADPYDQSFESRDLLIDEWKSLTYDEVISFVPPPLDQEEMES
Protocol: as §1
The following two assay variants can be used for determination of p38 MAPKα inhibition.
The inhibitory activities of test compounds against the p38 MAPKα isoform (MAPK14: Invitrogen), are evaluated indirectly by determining the level of activation/phosphorylation of the down-stream molecule, MAPKAP-K2. The p38 MAPKα protein (80 ng/mL, 2.5 μL) is mixed with the test compound (2.5 μL of either 4 μg/mL, 0.4 μg/mL, 0.04 μg/mL or 0.004 μg/mL) for 2 hr at RT. […] The mixture is incubated for 1 hr at RT. Development reagent (protease, 5 μL) is added for 1 hr prior to detection in a fluorescence microplate reader (Varioskan® Flash, ThermoFisher Scientific).
This method follows the same steps as Method 1 above, but utilises a higher concentration of the p38 MAPKα protein (2.5 μL of 200 ng/mL protein instead of 2.5 μL of 80 ng/mL protein) for mixing with the test compound.
as §3

[5] = system: d-U937 cells; assay: Accumulation of β catenin in d-U937 cells (assay m); format: cell-based, human; settings: percentage relative to Reference Compound at 1 μg/mL
Protocol: U937 cells, a human monocytic cell line, are differentiated into macrophage-type cells by incubation with PMA; (100 ng/mL) for between 48 to 72 hr. The cells are then incubated with either final concentrations of test compound or vehicle for 18 hr. The induction of β-catenin by the test compounds is stopped by replacing the media with 4% formaldehyde solution. Endogenous peroxide activity is neutralised by incubating with quenching buffer (100 μL, 0.1% sodium azide, 1% H2O2 in PBS with 0.05% Tween-20) for 20 min. The cells are washed with washing buffer (200 μL; PBS containing 0.05% Tween-20) and incubated with blocking solution (200 μL; 5% milk in PBS) for 1 hr, re-washed with washing buffer (200 μL) and then incubated overnight with anti-β-catenin antibody solution (50 μL) in 1% BSA/PBS (BD, Oxford, UK).
After washing with washing buffer (3×200 μL; PBS containing 0.05% Tween-20), cells are incubated with an HRP-conjugated secondary antibody solution (100 μL) in 1% BSA/PBS (Dako, Cambridge, UK) and the resultant signal is determined colourimetrically (OD: 450 nm with a reference wavelength of 655 nm) using TMB substrate (50 μL; R&D Systems, Abingdon, UK). This reaction is stopped by addition of 1N H2SO4 solution (50 μL). Cells are then washed with washing buffer and 2% crystal violet solution (50 μL) is applied for 30 min. After washing with washing buffer (3×200 μL), 1% SDS (100 μL) is added to each well and the plates are shaken lightly for 1 hr prior to measuring the absorbance at 595 nm (Varioskan® Flash, Thermo-Fisher Scientific).
The measured OD450-655 readings are corrected for cell number by dividing the OD450-655 by the OD595 readings.

[6] = target: Syk (Homo sapiens (Human), UniProt P43405); assay: Syk enzyme inhibition (FRET, Z-LYTE); format: biochemical
Protocol: as §1, §2, §3

[7] = system: PBMCs; assay: Cell mitosis assay in PBMCs (assay g); format: cell-based; settings: Homo sapiens, PBMC, test compound 5 μg/mL
Protocol: Peripheral blood mononucleocytes (PBMCs) from healthy subjects are separated from whole blood (Quintiles, London, UK) using a density gradient (Histopaque®-1077, Sigma-Aldrich, Poole, UK). The PBMCs (3 million cells per sample) are subsequently treated with 2% PHA (phytohaemagglutinin, Sigma-Aldrich, Poole, UK) for 48 hr, followed by a 20 hr exposure to varying concentrations of test compounds. At 2 hr before collection, PBMCs are treated with demecolcine (0.1 μg/mL; Invitrogen, Paisley, UK) to arrest cells in metaphase. To observe mitotic cells, PBMCs are permeabilised and fixed by adding Intraprep (50 μL; Beckman Coulter, France), and stained with anti-phospho-histone 3 (0.26 ng/L; #9701; Cell Signalling, Danvers, Mass.) and propidium iodide (1 mg/mL; Sigma-Aldrich, Poole, UK) as previously described (Muehlbauer P. A. and Schuler M. J., Mutation Research, 2003, 537:117-130). Fluorescence is observed using an ATTUNE flow cytometer (Invitrogen, Paisley, UK), gating for lymphocytes. The percentage inhibition of mitosis is calculated for each treatment relative to vehicle (0.5% DMSO) treatment.

| Structure (SMILES) | IC50 [2] [nM] | IC50 [3] [nM] | IC50 [4] [nM] | IC50 [6] [nM] | IC50 [1] [nM] | % β-catenin induction ([5]; test compound 1 μg/mL) [%] | % β-catenin induction ([5]; test compound 5 μg/mL) [%] | % β-catenin induction ([5]; test compound 10 μg/mL) [%] | inhibition at 5 µg/mL [7] [%] |
| --- | --- | --- | --- | --- | --- | --- | --- | --- | --- |
| COc1c(NC(=O)Nc2ccc(Oc3ccnc(N(C)C)n3)c3ccccc23)cc(C(C)(C)C)cc1P(C)(C)=O [15(ak), 1-(5-(tert-butyl)-3-(dimethylphosphoryl)-2-methoxyphenyl)-3-(4-((2-(dimethylamino)-pyrimidin-4-yl)oxy)naphthalen-1-yl)urea] | > 17800 | > 1780 | 38 | > 1780 | 26 | – | – | – | – |
| COc1c(NC(=O)Nc2ccc(Oc3ccnc(Nc4ccccc4)n3)c3ccccc23)cc(C(C)(C)C)cc1P(C)(C)=O [15(b), 1-(5-(tert-butyl)-3-(dimethylphosphoryl)-2-methoxyphenyl)-3-(4-((2-(phenylamino)-pyrimidin-4-yl)oxy)naphthalen-1-yl)urea] | 785 | 14 | 59 | 273 | 4.5 | – | – | – | – |
| COc1c(NC(=O)Nc2ccc(Oc3ccnc(Nc4cc(C)c5[nH]ncc5c4)n3)c3ccccc23)cc(C(C)(C)C)cc1P(C)(C)=O [15(j), 1-(5-(tert-butyl)-3-(dimethylphosphoryl)-2-methoxyphenyl)-3-(4-((2-((7-methyl-1H-indazol-5-yl)amino)pyrimidin-4-yl)oxy)naphthalen-1-yl)urea] | 855 | 19 | 173 | 16 | 3.2 | – | – | – | – |
| COc1c(CC(N)=O)cc(C(C)(C)C)cc1NC(=O)Nc1ccc(Oc2ccnc(Nc3cc(OCCN4CCOCC4)cc(C(F)(F)F)c3)c2)c2ccccc12 [38(w), 2-(5-(tert-Butyl)-2-methoxy-3-(3-(4-((2-((3-(2-morpholinoethoxy)-5-(trifluoromethyl)-phenyl)amino)pyridin-4-yl)oxy)naphthalen-1-yl)ureido)phenyl)acetamide] | > 12700 | – | – | – | 4 | – | – | – | 23.9 |
| COc1c(NC(=O)Nc2ccc(Oc3ccnc(Nc4cc(OCCN5CCOCC5)cc(C(F)(F)F)c4)c3)c3ccccc23)cc(C(C)(C)C)cc1[S+](C)[O-] (centres unmarked) [38(x), 1-(5-(tert-Butyl)-2-methoxy-3-(methylsulfinyl)phenyl)-3-(4-((2-((3-(2-morpholinoethoxy)-5-(trifluoromethyl)phenyl)amino)pyridin-4-yl)oxy)naphthalen-1-yl)urea] | > 12600 | – | – | – | 4.1 | – | – | – | 35 |
| COc1cc(Nc2cc(Oc3ccc(NC(=O)Nc4cc(C(C)(C)C)cc(P(C)(C)=O)c4OC)c4ccccc34)ccn2)cc(S(=O)(=O)N(C)CCN2CCN(C)CC2)c1 [79(m), 3-((4-((4-(3-(5-(tert-Butyl)-3-(dimethylphosphoryl)-2-methoxyphenyl)ureido)naphthalen-1-yl)oxy)pyridin-2-yl)amino)-5-methoxy-N-methyl-N-(2-(4-methylpiperazin-1-yl)ethyl)benzene sulfonamide] | – | 25 | 6 | 7 | 1.8 | – | – | – | – |
| COc1c(NC(=O)Nc2ccc(Oc3ccnc(NCc4ccccn4)n3)c3ccccc23)cc(C(C)(C)C)cc1P(C)(C)=O [Example 32, 1-(5-(tert-Butyl)-3-(dimethylphosphoryl)-2-methoxyphenyl)-3-(4-((2-((pyridin-2-ylmethyl)-amino)pyrimidin-4-yl)oxy)naphthalen-1-yl)urea] | 988 | 1110 | 6 | 1600 | 1.8 | – | – | – | – |

Further lines, with some results ahead:

| IC50 [2] [nM] | IC50 [3] [nM] | IC50 [4] [nM] | IC50 [6] [nM] | Structure (SMILES) | IC50 [1] [nM] | % β-catenin induction ([5]; test compound 1 μg/mL) [%] | % β-catenin induction ([5]; test compound 5 μg/mL) [%] | % β-catenin induction ([5]; test compound 10 μg/mL) [%] | inhibition at 5 µg/mL [7] [%] |
| --- | --- | --- | --- | --- | --- | --- | --- | --- | --- |
| 9400 | 77 | 226 | 278 | COc1cccc(Nc2cc(Oc3ccc(NC(=O)Nc4cc(C(C)(C)C)cc(P(C)(C)=O)c4OC)c4ccccc34)ccn2)c1 [15(af), 1-(5-(tert-butyl)-3-(dimethylphosphoryl)-2-methoxyphenyl)-3-(4-((2-((3-methoxy-phenyl)amino)pyridin-4-yl)oxy)naphthalen-1-yl)urea] | 2.7 | −2.0 | 13.0 | 32.0 | – |
| 11300 | 44 | 230 | 137 | COc1cc(Nc2cc(Oc3ccc(NC(=O)Nc4cc(C(C)(C)C)cc(P(C)(C)=O)c4OC)c4ccccc34)ccn2)cc(OC)c1 [Example 27, 1-(5-(tert-Butyl)-3-(dimethylphosphoryl)-2-methoxyphenyl)-3-(4-((2-((3,5-dimethoxyphenyl)-amino)pyridin-4-yl)oxy)naphthalen-1-yl)urea] | 1 | 5.7 | 13.0 | 13.3 | 52 |
| 5470 | 24 | 31 | 123 | COCCOCCOCCOc1cc(Nc2cc(Oc3ccc(NC(=O)Nc4cc(C(C)(C)C)cc(CP(C)(C)=O)c4OC)c4ccccc34)ccn2)cc(OC)c1 [Example 29, 1-(5-(tert-Butyl)-3-((dimethylphosphoryl)methyl)-2-methoxyphenyl)-3-(4-((2-((3-methoxy-5-(2-(2-(2-methoxyethoxy)ethoxy)ethoxy)phenyl)amino)pyridin-4-yl)oxy)naphthalen-1-yl)urea] | 0.8 | 6.5 | 9.0 | 45.0 | 49.4 |
